Laboratory results published in ChEMBL document CHEMBL1777684, “Synthesis and evaluation of antioxidant and antibacterial activities of new substituted bis(1,3,4-oxadiazoles), 3,5-bis(substituted) pyrazoles and isoxazoles” (Bioorg Med Chem Lett, 2011).
Active and inactive are the calls of the source. No cut-off for these calls is given here.

Tests used:
Pseudomonas aeruginosa = experiment: Antibacterial activity against Pseudomonas aeruginosa NCIM 5029 at 100 ug/ml after 24 hrs by agar disc diffusion method; format: functional; conditions: for zone of inhibition at 100 µg/mL: NCIM 5029, 24 h, read-out: IZ
Staphylococcus aureus = experiment: Antibacterial activity against Staphylococcus aureus NCIM 2079 at 100 ug/ml after 24 hrs by agar disc diffusion method; format: functional; conditions: for zone of inhibition at 100 µg/mL: NCIM 2079, 24 h, read-out: IZ
[1] = test system: Radical scavenging activity; experiment: Antioxidant activity assessed as DPPH radical scavenging activity at 10 ug/ml by UV-visible spectrophotometry; format: functional
Escherichia coli = experiment: Antibacterial activity against Escherichia coli NCIM 2065 at 100 ug/ml after 24 hrs by agar disc diffusion method; format: functional; conditions: for zone of inhibition at 100 µg/mL: NCIM 2065, 24 h, read-out: IZ
Bacillus subtilis = experiment: Antibacterial activity against Bacillus subtilis NCIM 2063 at 100 ug/ml after 24 hrs by agar disc diffusion method; format: functional; conditions: NCIM 2063, 24 h, read-out: IZ
[2] = Anti-lipid peroxidation activity ferric chloride-induced lipid peroxidation using egg yolk homogenate at 40 ug/ml by TBARS assay; format: physicochemical; conditions: tissue homogenate

Compound	Activity [2]	zone of inhibition at 100 µg/mL (Pseudomonas aeruginosa)	zone of inhibition at 100 µg/mL (Staphylococcus aureus)	Activity [1]	zone of inhibition at 100 µg/mL (Escherichia coli)	zone of inhibition at 100 µg/mL (Bacillus subtilis)	inhibition zone (IZ) (Staphylococcus aureus)	inhibition zone (IZ) (Pseudomonas aeruginosa)	inhibition zone (IZ) (Escherichia coli)
CN(C)c1ccc(/C=N/Nc2cc(N/N=C/c3ccc(N(C)C)cc3)[nH]n2)cc1		8 mm	20 mm	59.2%	9 mm	10 mm			
COc1ccc(/C=N/Nc2cc(N/N=C/c3ccc(OC)c(OC)c3)[nH]n2)cc1OC		6 mm	10 mm	47.1%	13 mm	8 mm			
COc1cc(-c2nnc(Cc3nnc(-c4cc(OC)c(OC)c(OC)c4)o3)o2)cc(OC)c1OC	44.3%		7 mm			3 mm		inactive	inactive
CN(C)c1ccc(/C=N/Nc2cc(N/N=C/c3ccc(N(C)C)cc3)on2)cc1	54.5%	12 mm	20 mm	90.6%	10 mm	15 mm			
O=C1O[C@H]([C@@H](O)CO)C(O)=C1O				93.2%					
COc1ccc(-c2nnc(Cc3nnc(-c4ccc(OC)c(OC)c4)o3)o2)cc1OC		9 mm	10 mm	inactive	10 mm	11 mm			
Clc1ccc(/C=N/Nc2cc(N/N=C/c3ccc(Cl)cc3)on2)cc1	Not Active	6 mm	14 mm	37.4%	8 mm	8 mm			
COc1cc(/C=N/Nc2cc(N/N=C/c3cc(OC)c(OC)c(OC)c3)[nH]n2)cc(OC)c1OC		9 mm	17 mm	52.4%		12 mm			inactive
Clc1ccc(/C=N/Nc2cc(N/N=C/c3ccc(Cl)cc3)[nH]n2)cc1		5 mm	4 mm	40%	4 mm	6 mm			
COc1ccc(-c2nnc(Cc3nnc(-c4ccc(OC)cc4)o3)o2)cc1	40.5%	7 mm	9 mm	inactive	6 mm	8 mm			
O=C(O)c1cn(C2CC2)c2cc(N3CCNCC3)c(F)cc2c1=O [CIPROFLOXACIN]		18 mm	29 mm			18 mm			
VITAMIN E	70%								

More lines, main results first:

Activity [2]	Compound	zone of inhibition at 100 µg/mL (Pseudomonas aeruginosa)	zone of inhibition at 100 µg/mL (Staphylococcus aureus)	Activity [1]	zone of inhibition at 100 µg/mL (Escherichia coli)	zone of inhibition at 100 µg/mL (Bacillus subtilis)	inhibition zone (IZ) (Staphylococcus aureus)	inhibition zone (IZ) (Pseudomonas aeruginosa)	inhibition zone (IZ) (Escherichia coli)
46.3%	COc1ccc(/C=N/Nc2cc(N/N=C/c3ccc(OC)cc3)[nH]n2)cc1	19 mm	28 mm	44.3%	18 mm	20 mm			
58.6%	Oc1ccc(/C=N/Nc2cc(N/N=C/c3ccc(O)cc3)[nH]n2)cc1	18 mm		83%	13 mm	7 mm	inactive		
46.3%	CN(C)c1ccc(-c2nnc(Cc3nnc(-c4ccc(N(C)C)cc4)o3)o2)cc1	9 mm	13 mm	28%	10 mm	12 mm			
44%	C(=N\Nc1cc(N/N=C/c2ccccc2)[nH]n1)/c1ccccc1	9 mm	5 mm	34.2%	4 mm	9 mm			
53.4%	Oc1ccc(-c2nnc(Cc3nnc(-c4ccc(O)cc4)o3)o2)cc1	1 mm	7 mm	36%	1 mm	2 mm			
33.4%	c1ccc(-c2nnc(Cc3nnc(-c4ccccc4)o3)o2)cc1	13 mm	7 mm	41.3%	5 mm	10 mm			
16.2%	Clc1ccc(-c2nnc(Cc3nnc(-c4ccc(Cl)cc4)o3)o2)cc1		4 mm	40%		6 mm		inactive	inactive
48.4%	COc1cc(/C=N/Nc2cc(N/N=C/c3cc(OC)c(OC)c(OC)c3)on2)cc(OC)c1OC	9 mm	13 mm	54%	11 mm	10 mm			
48.6%	Oc1ccccc1-c1nnc(Cc2nnc(-c3ccccc3O)o2)o1	5 mm	9 mm	37%	8 mm	13 mm			
Not Active	O=[N+]([O-])c1ccc(/C=N/Nc2cc(N/N=C/c3ccc([N+](=O)[O-])cc3)[nH]n2)cc1	8 mm	9 mm	74.2%	11 mm	7 mm			
